From ChEMBL document CHEMBL5338821, “6-Substituted Triazolyl Benzoxaboroles as Selective Carbonic Anhydrase Inhibitors: In Silico Design, Synthesis, and X-ray Crystallography” (J Med Chem, 2023)

Experiments:
[1] = biological target: Carbonic anhydrase 1 (Homo sapiens, UniProt P00915); test: Inhibition of recombinant human carbonic anhydrase I assessed as inhibition constant incubated for 15 mins by phenol red dye based stopped-flow CO2 hydration assay
[2] = biological target: Carbonic anhydrase 4 (Homo sapiens, UniProt P22748); test: Inhibition of recombinant human carbonic anhydrase IV assessed as inhibition constant incubated for 15 mins by phenol red dye based stopped-flow CO2 hydration assay
Sequence of Carbonic anhydrase 4 (P22748 whole entry): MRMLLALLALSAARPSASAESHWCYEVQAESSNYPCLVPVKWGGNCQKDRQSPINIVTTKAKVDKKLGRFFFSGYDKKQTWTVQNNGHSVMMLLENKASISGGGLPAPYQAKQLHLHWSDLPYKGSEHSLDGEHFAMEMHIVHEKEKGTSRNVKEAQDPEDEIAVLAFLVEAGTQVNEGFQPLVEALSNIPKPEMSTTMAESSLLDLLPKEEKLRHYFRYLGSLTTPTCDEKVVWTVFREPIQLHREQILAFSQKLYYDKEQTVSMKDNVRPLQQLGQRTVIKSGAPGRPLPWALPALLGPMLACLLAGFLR

[3] = biological target: Carbonic anhydrase 7 (Homo sapiens, UniProt P43166); test: Inhibition of recombinant human carbonic anhydrase VII assessed as inhibition constant incubated for 15 mins by phenol red dye based stopped-flow CO2 hydration assay
Sequence of Carbonic anhydrase 7 (P43166 whole entry): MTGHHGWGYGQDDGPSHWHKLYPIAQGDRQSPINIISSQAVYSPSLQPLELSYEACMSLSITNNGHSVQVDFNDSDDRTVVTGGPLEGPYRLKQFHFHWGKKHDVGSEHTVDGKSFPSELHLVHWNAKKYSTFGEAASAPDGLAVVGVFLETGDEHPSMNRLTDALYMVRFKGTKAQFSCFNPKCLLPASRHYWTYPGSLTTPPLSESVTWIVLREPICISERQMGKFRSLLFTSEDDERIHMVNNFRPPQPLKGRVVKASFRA

[4] = biological target: Carbonic anhydrase 2 (Homo sapiens, UniProt P00918); test: Inhibition of recombinant human carbonic anhydrase II assessed as inhibition constant incubated for 15 mins by phenol red dye based stopped-flow CO2 hydration assay
[5] = biological target: Carbonic anhydrase 9 (Homo sapiens, UniProt Q16790); test: Inhibition of recombinant human carbonic anhydrase IX assessed as inhibition constant incubated for 15 mins by phenol red dye based stopped-flow CO2 hydration assay
[6] = species on record: Homo sapiens; test: Selectivity index, ratio of Ki for inhibition of recombinant human carbonic anhydrase I to Ki for inhibition of recombinant human carbonic anhydrase VII
[7] = species on record: Homo sapiens; test: Selectivity index, ratio of Ki for inhibition of recombinant human carbonic anhydrase II to Ki for inhibition of recombinant human carbonic anhydrase IX
[8] = species on record: Homo sapiens; test: Selectivity index, ratio of Ki for inhibition of recombinant human carbonic anhydrase I to Ki for inhibition of recombinant human carbonic anhydrase IX
[9] = species on record: Homo sapiens; test: Selectivity index, ratio of Ki for inhibition of recombinant human carbonic anhydrase II to Ki for inhibition of recombinant human carbonic anhydrase VII

Sequence of Carbonic anhydrase 1 (P00915 whole entry): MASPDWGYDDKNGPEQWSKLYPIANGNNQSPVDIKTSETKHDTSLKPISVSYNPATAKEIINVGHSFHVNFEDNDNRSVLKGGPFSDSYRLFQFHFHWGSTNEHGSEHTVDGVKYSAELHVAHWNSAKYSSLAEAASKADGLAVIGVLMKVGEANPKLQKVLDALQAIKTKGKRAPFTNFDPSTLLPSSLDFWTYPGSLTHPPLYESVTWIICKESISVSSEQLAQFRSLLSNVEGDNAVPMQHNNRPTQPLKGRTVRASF

| SMILES | Ki [1] [nM] | Ki [2] [nM] | Ki [3] [nM] | Ki [4] [nM] | Ki [5] [nM] | Ratio Ki [6] | Ratio Ki [7] | Ratio Ki [8] | Ratio Ki [9] |
| --- | --- | --- | --- | --- | --- | --- | --- | --- | --- |
| CCOC(=O)c1cn(-c2ccc3c(c2)B(O)OC3)nn1 | 2510 | 2480 | 441 | 796 | 337 | – | – | – | – |
| OB1OCc2ccc(-n3cc(COc4ccccc4)nn3)cc21 | 343 | 1380 | 56.2 | 205 | 29.1 | – | – | – | – |
| O=c1ccc2ccc(OCc3cn(-c4ccc5c(c4)B(O)OC5)nn3)cc2o1 | 2600 | 3180 | 70.2 | 375 | 111 | – | – | – | – |
| O=C(O)c1cccc(-c2cn(-c3ccc4c(c3)B(O)OC4)nn2)c1 | 505 | 749 | 67.5 | 310 | 114 | – | – | – | – |
| OB1OCc2ccc(-n3cc(C4CC4)nn3)cc21 | 2320 | 3220 | 474 | 1080 | 389 | – | – | – | – |
| OB1OCc2ccc(-n3cc(-c4ccccc4)nn3)cc21 | 740 | 1180 | 262 | 362 | 122 | – | – | – | – |
| CC(C)(C)OC(=O)NCc1cn(-c2ccc3c(c2)B(O)OC3)nn1 | 737 | 730 | 135 | 461 | 75.2 | – | – | – | – |
| OCc1cn(-c2ccc3c(c2)B(O)OC3)nn1 | 1090 | 928 | 141 | 873 | 145 | – | – | – | – |
| OB1OCc2ccc(-n3cc(COc4ccc(F)cc4)nn3)cc21 | 336 | 1050 | 35.6 | 186 | 28 | 6 | 6 | 6 | 6 |
| COc1cccc(OCc2cn(-c3ccc4c(c3)B(O)OC4)nn2)c1 | 1100 | 1930 | 124 | 183 | 32 | – | – | – | – |
| OB1OCc2ccc(-n3cc(CSc4ccccc4)nn3)cc21 | 300 | 1610 | 49.2 | 270 | 33.2 | 6 | – | – | 6 |
| OCCc1cn(-c2ccc3c(c2)B(O)OC3)nn1 | 1460 | 497 | 81.7 | 494 | 70.4 | – | – | – | – |
| COc1ccc(OCc2cn(-c3ccc4c(c3)B(O)OC4)nn2)cc1 | 863 | 1660 | 88.1 | 258 | 52 | – | – | – | – |
| [N-]=[N+]=Nc1ccc2c(c1)B(O)OC2 | 3040 | 3120 | 432 | 350 | 539 | – | – | – | – |
